Data from ChEMBL document CHEMBL5331124, “Degradation of Hexokinase 2 Blocks Glycolysis and Induces GSDME-Dependent Pyroptosis to Amplify Immunogenic Cell Death for Breast Cancer Therapy” (J Med Chem, 2023).
The source made the active and inactive calls. No cut-off for these calls is given here.

Legend:
[1] = biological target: T1, Hexokinase-1 (Homo sapiens) (UniProt P19367); test: Induction of HK1 degradation in human MDA-MB-231 cells at 20 uM measured for 36 hrs by Western blot analysis; assay type: cell-based
T1 sequence (whole entry): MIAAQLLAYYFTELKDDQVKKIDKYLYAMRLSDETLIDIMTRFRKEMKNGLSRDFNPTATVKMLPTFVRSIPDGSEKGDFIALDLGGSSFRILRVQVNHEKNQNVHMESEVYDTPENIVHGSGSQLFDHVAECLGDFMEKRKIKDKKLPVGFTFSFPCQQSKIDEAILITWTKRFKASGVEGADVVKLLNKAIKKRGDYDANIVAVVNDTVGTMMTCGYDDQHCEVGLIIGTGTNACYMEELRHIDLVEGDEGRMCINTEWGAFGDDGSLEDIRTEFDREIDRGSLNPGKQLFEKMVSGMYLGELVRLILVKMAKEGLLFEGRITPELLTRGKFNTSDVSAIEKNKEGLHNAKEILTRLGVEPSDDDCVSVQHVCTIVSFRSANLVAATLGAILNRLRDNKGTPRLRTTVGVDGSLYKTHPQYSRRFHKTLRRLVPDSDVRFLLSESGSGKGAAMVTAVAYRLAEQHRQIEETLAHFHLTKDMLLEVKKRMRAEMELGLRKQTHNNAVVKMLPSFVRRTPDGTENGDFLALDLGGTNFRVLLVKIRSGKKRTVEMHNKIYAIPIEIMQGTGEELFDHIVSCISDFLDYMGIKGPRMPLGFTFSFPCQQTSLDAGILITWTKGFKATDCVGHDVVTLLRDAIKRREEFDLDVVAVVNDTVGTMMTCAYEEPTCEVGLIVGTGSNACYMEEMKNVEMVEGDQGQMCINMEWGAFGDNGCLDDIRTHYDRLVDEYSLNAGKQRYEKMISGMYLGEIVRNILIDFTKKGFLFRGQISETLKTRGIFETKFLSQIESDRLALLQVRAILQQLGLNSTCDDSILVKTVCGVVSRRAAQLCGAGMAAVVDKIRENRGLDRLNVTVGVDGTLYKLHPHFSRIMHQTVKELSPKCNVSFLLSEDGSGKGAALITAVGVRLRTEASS

4T1 [2] = test: Cytotoxicity against mouse 4T1 cells assessed as inhibition of cell growth at 1 to 100 uM incubated for 48 hrs by CCK-8 assay; assay type: functional, cell-based; details: dose 1-100 µM
4T1 [3] = test: Antitumor immunity against mouse 4T1 cells implanted in BALB/c mouse model assessed as increase in N-terminal GSDME expression in tumor; assay type: functional, cell-based
4T1 [4] = test: Antitumor immunity against mouse 4T1 cells implanted in BALB/c mouse model assessed as downregulation of TGF-beta expression in mouse tumor by ELISA analysis; assay type: functional, cell-based
[5] = biological target: T2, Hexokinase-2 (Homo sapiens) (UniProt P52789); test: Induction of HK2 degradation in human MDA-MB-231 cells upto 200 uM measured at 12 to 36 hrs; assay type: cell-based; details: time 12-36 hrs
T2 sequence (whole entry): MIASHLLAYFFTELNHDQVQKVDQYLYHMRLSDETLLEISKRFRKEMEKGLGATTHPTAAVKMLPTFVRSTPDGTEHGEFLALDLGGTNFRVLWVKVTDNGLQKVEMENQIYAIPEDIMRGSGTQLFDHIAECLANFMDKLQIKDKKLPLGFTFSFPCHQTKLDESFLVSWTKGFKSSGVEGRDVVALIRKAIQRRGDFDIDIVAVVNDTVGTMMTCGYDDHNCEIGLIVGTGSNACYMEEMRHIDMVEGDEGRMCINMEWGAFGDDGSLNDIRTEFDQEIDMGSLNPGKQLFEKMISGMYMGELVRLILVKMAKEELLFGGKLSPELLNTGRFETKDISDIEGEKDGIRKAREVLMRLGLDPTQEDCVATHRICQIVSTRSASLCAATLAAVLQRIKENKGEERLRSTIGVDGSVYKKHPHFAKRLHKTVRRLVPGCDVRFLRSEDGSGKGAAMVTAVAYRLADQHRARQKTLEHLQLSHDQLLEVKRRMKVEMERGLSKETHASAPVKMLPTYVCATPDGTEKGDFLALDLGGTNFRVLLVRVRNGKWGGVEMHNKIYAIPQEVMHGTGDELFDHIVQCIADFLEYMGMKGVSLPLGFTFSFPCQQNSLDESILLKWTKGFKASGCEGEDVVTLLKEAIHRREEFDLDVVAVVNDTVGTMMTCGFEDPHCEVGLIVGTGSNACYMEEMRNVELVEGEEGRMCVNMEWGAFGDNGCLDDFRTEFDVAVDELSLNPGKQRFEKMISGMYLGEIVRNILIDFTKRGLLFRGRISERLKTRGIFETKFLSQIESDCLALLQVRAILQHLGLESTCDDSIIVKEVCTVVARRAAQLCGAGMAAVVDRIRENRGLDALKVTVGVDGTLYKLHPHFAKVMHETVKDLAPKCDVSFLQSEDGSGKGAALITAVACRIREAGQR

[6] = biological target: Protein cereblon/Hexokinase-2 (Homo sapiens) (UniProt P52789+Q96SW2); test: PROTAC activity at CRBN/HK2 in human MDA-MB-231 cells assessed as […] ternary complex formation at 10 uM incubated for 24 hrs in presence of MG132; assay type: cell-based
[7] = Toxicity in BALB/c mouse implanted with mouse 4T1 cells assessed as effect on hematocrit level at 50 mg/kg, ip measured after 25 days by routine blood test; assay type: organism-based; details: in vivo, 600 h, time 25 day
4T1 [8] = test: Inhibition of glycolysis in mouse 4T1 cells assessed as reduction in oxygen consumption rate at 20 uM incubated for 1 to 4 hrs by seahorse analyzer method; assay type: functional, cell-based; details: time 1-4 hrs
MDA-MB-231 = test: Antitumor immunity against human MDA-MB-231 cells xenografted in BALB/c nude mouse at 50 mg/kg, ip measured after 28 days; assay type: functional, organism-based; details: time 28.0 day
[9] = Toxicity in BALB/c mouse implanted with mouse 4T1 cells assessed as pathological changes in lung at 50 mg/kg, ip measured after 25 days in presence of cisplatin by Hematoxylin -eosin staining based analysis; assay type: organism-based; details: in vivo, 600 h, time 25 day
4T1 [10] = test: Induction of mitochondrial damage in mouse 4T1 cells assessed as increase in ROS generation at 20 uM measured for 36 hrs by Hoechst 33342 staining based confocal fluorescence microscopic analysis; assay type: functional, cell-based

Protein cereblon/Hexokinase-2 (Homo sapiens), sequence (Q96SW2 whole entry, looked up, one chain of several): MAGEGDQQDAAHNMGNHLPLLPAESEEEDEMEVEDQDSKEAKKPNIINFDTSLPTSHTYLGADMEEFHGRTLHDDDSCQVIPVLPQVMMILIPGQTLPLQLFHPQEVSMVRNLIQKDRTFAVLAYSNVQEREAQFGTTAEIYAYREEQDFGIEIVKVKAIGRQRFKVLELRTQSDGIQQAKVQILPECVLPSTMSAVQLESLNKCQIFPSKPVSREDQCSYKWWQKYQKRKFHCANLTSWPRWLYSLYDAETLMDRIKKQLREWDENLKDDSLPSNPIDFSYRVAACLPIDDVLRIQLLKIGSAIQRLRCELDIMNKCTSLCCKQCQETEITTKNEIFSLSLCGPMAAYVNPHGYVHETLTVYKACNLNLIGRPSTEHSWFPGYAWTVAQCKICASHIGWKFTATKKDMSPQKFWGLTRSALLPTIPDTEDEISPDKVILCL

Question: Which Activity [1] does the source give for `O=C1CCC(N2C(=O)c3cccc(NCCCCNC(=O)c4nn(Cc5ccc(Cl)cc5Cl)c5ccccc45)c3C2=O)C(=O)N1` (stereo unspecified) here?
Answer: inactive

Question: What about the Activity (4T1 [2]) of the same molecule?
Answer: Active

Question: And the Activity (4T1 [3])?
Answer: Active

Question: What about the Activity (4T1 [4]) of the same molecule?
Answer: Active

Question: And the Activity [5]?
Answer: Active

Question: What about the Activity [6] of the same molecule?
Answer: inactive

Question: And the Activity [7]?
Answer: Non-Toxic

Question: What about the inhibition (4T1 [8]) of the same molecule?
Answer: Active

Question: What about the Activity (MDA-MB-231) of the same molecule?
Answer: inactive

Question: What about the Activity [9] of the same molecule?
Answer: Non-Toxic

Question: What about the Activity (4T1 [10]) of the same molecule?
Answer: Active
